Laboratory results reported in patent US20080206287A1, “Use of cyclosporin A to sensitize resistant cancer cells to death receptor ligands” (priority 2006, published 2008).
“Also recorded” adds a separate entry of the source.

Assays:
Type in all cases: cell-based
[1] = system: OVCAR-3 and T47D tumor lines; assay: Extrinsic versus intrinsic pathway stimuli in further tumor lines
PPC-1 cells [2] = assay: PPC-1 cell viability (MTT) with or without CH-11 anti-FAS antibody; conditions: for direct toxicity: compound alone, concentrations up to 80 μM
Experimental: High throughput screening. Screens were performed using a fully integrated, programmable robotic liquid handling system (Biomek® FX, Beckman-Coulter Inc., Fullerton, Calif.), with integrated plate reader (LJL analyst HT 96-384, Sunnyvale, Calif.) and environmentally controlled plate carousel set at 37° C. and 5% CO2:95% air. PPC-1 cells (1×10^4) were seeded overnight into 96 well, flat-bottom plates (Costar, Cambridge, Mass.) in 100 μL of medium containing 2.5% FCS. The next day, aliquots from the 50,000 compound Diversa library were added at a final concentration of 7.5 μg/mL (about 25 μM) in a final concentration of 0.5% (v:v) dimethylsulfoxide (DMSO). CH-11 antibody (100 ng/mL) was then added, and the cells were incubated for 24 hours before assessing cell viability by a 3-(4,5-Dimethylthiazol-2-yl)-2,5-diphenyltetrazolium Bromide (MTT) dye reduction assay (Sigma).
Cell death assays. Cell viability was measured by MTT and MTS assays, essentially as described in Schimmer et al. (Cancer Cell 5:25-35, 2004). Absorbance readings were plotted against a standard curve to derive the corresponding cell number, and cell viability was expressed as a percentage relative to untreated cells. Apoptosis was measured by flow cytometric analysis of Annexin V surface expression after staining cells with FITC-anti-Annexin V and propidium iodide (PI) (Biovision, Mountain View, Calif.), as described in Pedersen et al. (Blood 100:2965-72, 2002).
Statistics. Cytotoxicity induced by compounds used in combination with conventional agents (e.g., CH-11, TRAIL, VP-16 and staurosporine) was evaluated for evidence of synergy toxicity by comparing the slopes of the dose-response curves. If the combination of the potential sensitizing compound with the conventional agent increased the slope of the dose-response curve compared to the slopes of either the sensitizer or the conventional agent alone, then the interaction was considered synergistic. […] Statistical significance was defined as a p<0.01, using two-sided tests. Synergy was confirmed by performing multiple drug dose-effect calculations using the Median Effect methods as described in Chou (“The Median-Effect Principle and the Combination Index for Quantitation of Synergism and Antagonism.” In: D. C. Rideout and T. C. Chou (eds.), Synergism and Antagonism in Chemotherapy, pp. 61-102: Academic Press, Inc., 1991).
Identification of small molecule FAS sensitizers. Resistance to death receptor ligands may permit malignant cells to escape immune surveillance and limit the clinical efficacy of recombinant death receptor ligands such as TRAIL. To identify small molecules that restore sensitivity to death receptor ligands, a cell-based high throughput screen was performed using the FAS and TRAIL-resistant prostate cancer cell line PPC-1 and a commercially available 50,000 compound library. The screens were performed in 96 well plates, to which compounds were added at 7.5 μg/ml (about 25 μM), followed by agonistic anti-FAS monoclonal antibody CH-11 (100 ng/mL). Cell viability was measured 24 hours later by MTT assay. […] The coefficient of variation (CV) for PPC-1 cells treated with CH-11 alone was determined to be 5%, based on 90 replicate determinations. A 50% decrease in cell viability was used as a cut-off for scoring hits.
From the primary screen of 50,000 compounds, 313 reproducible hits were obtained. To determine whether any of the 313 compounds were toxic molecules as opposed to FAS-sensitizers, the 313 compounds were evaluated in secondary screens where PPC-1 cells were treated with increasing concentrations of the compounds in the presence or absence of CH-11 antibody. Through these secondary screens, nine sensitizers were identified that increased CH-11-mediated killing above the cell death produced by treatment of the cells with the compound alone (Table 1). […]

PPC-1 cells [3] = assay: Apoptosis of PPC-1 cells transfected with CrmA or Bcl-XL; conditions: for protection by Bcl-XL against apoptosis induced by CH-11 plus compound: PPC-1 cells transfected with Bcl-XL; for protection by CrmA against apoptosis induced by CH-11 plus compound: PPC-1 cells transfected with CrmA
Experimental: Cell transfections. PPC-1 cells (2×10^5) were seeded in 35 mm diameter plates in RPMI with 10% FCS. The next day the cells were co-transfected using Lipofectamine Plus (Invitrogen, Carlsbad, Calif.) with 0.5 μg GFP-encoding plasmid pEGFP (Invitrogen) in combination with […] of plasmids encoding Bcl-XL, the viral caspase-8 inhibitor Crm A, or empty vector. At 2 days post-transfection, cells were incubated with various concentrations of CH-11 antibody and the test compounds for 24 hours, then the percentage apoptosis was scored by UV-microscopic analysis of the GFP-positive cells, counting a minimum of 200 cells. Cells that had rounded up and were floating in the medium were counted as non-viable, while cells that remained adherent to the plate with normal morphological features were counted as viable.
To further address the specificity of the compounds for the extrinsic pathway, the effects of selective apoptosis inhibitory genes were examined. For these experiments, PPC-1 cells were transfected with plasmids encoding CrmA, a viral protein that blocks the extrinsic pathway by inhibiting caspase-8 (Zhou et al., J. Biol. Chem. 272:7797-7800, 1997) or encoding Bcl-xL, a mitochondria-targeting protein that blocks the intrinsic pathway by inhibiting release of cytochrome c (Boise et al., Cell 74:597-608, 1993; Kharbanda et al., Proc. Natl. Acad. Sci. USA 94:6939-6942, 1997). After transfection, cells were treated with CH-11 antibody and compounds 6094911, 5809354, or […] scoring the percentage of apoptotic cells among the successfully transfected cells as determined by co-transfection of a GFP-marker plasmid.

ten tumor cell lines = assay: CH-11 killing of a spectrum of malignant cell lines; conditions: increasing concentrations with or without CH-11
Experimental: Effects of small molecule sensitizers on CH-11 killing of a spectrum of malignant cell lines. To assess the spectrum of activity of the small molecule FAS sensitizers, an additional nine malignant cell lines derived from breast, ovarian, and prostate carcinomas were treated with increasing concentrations of the sensitizers in the presence or absence of CH-11. […] None of the other compounds sensitized more than four of ten tumor lines to CH-11. […] Also, all of the non-responding cell lines, except Colo 205, had detectable levels of FLIP by immunoblotting. Thus, the failure of 609411 and 5809354 to sensitize these tumor lines to anti-FAS antibody was not due to either lack of FAS expression or absence of FLIP, with rare exception.

| SMILES | sensitization to extrinsic versus intrinsic pathway stimuli [1] | EC50 (PPC-1 cells [2]; Homo sapiens, PPC-1, PPC1 cells with anti-FAS antibody, read-out: EC50 as a FAS-sensitizer in PPC1 cells) | potency as a FAS-sensitizer relative to 5541203 (PPC-1 cells [2]; PPC1 cells) | toxicity when added alone relative to 5541203 (PPC-1 cells [2]; PPC1 cells, without anti-FAS antibody) | synergy with CH-11, median-dose combination index (CI) (PPC-1 cells [2]; PPC-1 cells, combined with CH-11) | protection by Bcl-XL against apoptosis induced by CH-11 plus compound (PPC-1 cells [3]) | protection by CrmA against apoptosis induced by CH-11 plus compound (PPC-1 cells [3]) | tumor cell lines sensitized to CH-11 (ten tumor cell lines) | direct toxicity (PPC-1 cells [2]; PPC-1 cells) |
| --- | --- | --- | --- | --- | --- | --- | --- | --- | --- |
| CCn1c(=N)n(CC(=O)c2cc(C(C)(C)C)c(O)c(C(C)(C)C)c2)c2ccccc21 [compound 5569100, 1-(3,5-Di-tert-butyl-4-hydroxy-phenyl)-2-(3-ethyl-2-imino-2,3-dihydro-benzoimidazol-1-yl)-ethanone] | confirming that the results are not unique to PPC-1 cells | 5.6 µM | approximately 5 times | three times more toxic | did not demonstrate synergy | no protective effect | almost completely protected | – | – |
| O=C(CCCOc1ccc(Cl)cc1Cl)NO [compound 5809354, 4-(2,4-dichlorophenoxy)-N-hydroxybutanamide] | confirming that the results are not unique to PPC-1 cells | – | – | – | – | no protective effect | almost completely protected | sensitized the same tumor lines with the exception of HT29 | little direct toxicity |
| CC(=O)CC(=O)Nc1ccc(Cl)c(C(F)(F)F)c1 [compound 6094911, N-[4-chloro-3-(trifluoromethyl)phenyl]-3-oxobutanamide] | confirming that the results are not unique to PPC-1 cells | – | – | – | – | no protective effect | almost completely protected | sensitized four of ten tumor cell lines to CH-11; also recorded: sensitizing 4 of 10 tumor lines; also recorded: enhanced FAS-induced killing of several tumor cell lines | little direct toxicity |
